Laboratory results taken from patent publication US8987189B2, “Treating hepatitis C virus infection” (Board of Regents, The University of Texas System, priority 2007, dated 2015).

Tests used:
[1] = tested on: genotype 2a HCV; test: HCV release assay in Huh7-GL cells (HCV RNA copy number and titer in medium, intracellular HCV RNA); format: cell-based, hepatitis C virus; conditions: for cellular release of virus (HCV RNA copy numbers and titers in the media): Huh7-GL cells, 1 nM, 10 nM, 100 nM and 500 nM, 16 hr then 4 hours in serum-free medium
Protocol: (§1) Huh7-GL cells were incubated in the absence or presence of the MTP inhibitor […]. Following incubation in serum-free medium, culture medium was harvested and the amount of HCV RNA, HCV titer, and apoB in the medium was measured.
Huh7-GL cells are cultured as described in Example 2. On day 1, the cells are treated with 1 nM, 10 nM, 100 nM, and 500 nM of the following MTP inhibitors: BMS-201038 (positive control), BMS-200150, BMS-212122, BMS-197636, JTT-130, Implitapide, mitratapide, and CP-346086. 16 hr later on day 2, cells are switched to serum-free medium in the absence or presence of the same amount of the MTP inhibitor.

[2] = previous clinical trials; cited from earlier work
[3] = tested on: HCV; test: Randomized, double-blind, placebo-controlled trial in patients with chronic HCV infection; conditions: 0.15 mg per kilogram twice daily, 12-week course
Protocol: Patients are recruited and are eligible for enrollment if they are positive for HCV RNA on serologic testing after at least 3 months of interferon therapy. Patients who can not tolerate interferon because of severe side effects, such as fatigue, neuropsychiatric disturbances, or thrombocytopenia, are also included.
Physicians and patients are blinded to treatment assignments. Patients are evaluated every 3 weeks for compliance, which is assessed by pill count, and for the development of adverse reactions. […] At each evaluation visit, a complete blood count is done and serum levels of electrolytes, blood urea nitrogen, creatinine, aspartate aminotransferase, alanine aminotransferase, albumin, and total bilirubin are measured. Titers of serum HCV RNA are assessed before enrollment, at each evaluation visit, and 6 weeks after the final dose by using a […] multicycle reverse transcription polymerase chain reaction method. Titers are calculated up to 5 million copies/mL; if a titer is greater than 5 million copies/mL, it is simply reported as such and the exact value is not given.

[4] = tested on: apoB; test: apoB mRNA and apoB secretion in Huh7-GL cells; format: cell-based, human; conditions: Huh7-GL cells incubated with MTP inhibitor, serum-free medium
Protocol: We transfected Huh7-GL cells, a line of Huh7 cells that contain a chromosomally integrated genotype 2a HCV cDNA and constitutively produce infectious virus (Cai et al., 2005), with a duplex siRNA targeting apoB or GFP as a control. Following incubation in serum-free medium, culture medium was harvested and the amount of apoB and HCV in the medium was analyzed. […] In control cells transfected with the GFP siRNA, the HCV copy number and titer increased by more than 10 fold during the period of 4-hr incubation. In cells receiving the apoB siRNA, this increase was reduced by about 50% as assayed by viral copy number, and 70% as assayed by the viral titer.
as §1

[5] = Huh7-GL cells incubated with MTP inhibitor vs absence of inhibitor

Row | Compound | cellular release of virus (HCV RNA copy numbers and titers in the media) [1] | also measured
1 | O=C1c2ccccc2CN1C1CCN(CCC(c2ccccc2)c2ccccc2)CC1 [BMS-200150] | decreases in cellular release of virus | 
2 | CCCNC(=O)C1(CCCCN2CCC(N3Cc4ccccc4C3=O)CC2)c2ccccc2-c2ccccc21 [BMS-197636] | decreases in cellular release of virus | 
3 | implitapide | decreases in cellular release of virus | 
4 | O=C(Nc1ccc2c(c1)CCN(Cc1ncn[nH]1)C2)c1ccccc1-c1ccc(C(F)(F)F)cc1 [CP-346086] | decreases in cellular release of virus | 
5 | O=C(NC1CCN(CCCCC2(C(=O)NCC(F)(F)F)c3ccccc3-c3ccccc32)CC1)c1ccccc1-c1ccc(C(F)(F)F)cc1 [BMS-201038] | decreases in cellular release of virus | tolerability [2]: high tolerability; serum viremia (viral load, aminotransferase levels) [3]: decrease in serum viremia; secretion of apoB [4]: blocked; intracellular HCV RNA ([1]; Huh7-GL cells in the absence or presence of the MTP inhibitor): remained the same; reduction of the amount of HCV RNA in the medium [1, 5]: about 80%; reduction of viral titer in the medium [1, 5]: about 80%
6 | CC[C@@H](C)n1ncn(-c2ccc(N3CCN(c4ccc(OC[C@@H]5CO[C@@](CSc6nncn6C)(c6ccc(Cl)cc6)O5)cc4)CC3)cc2)c1=O [mitratapide] | decreases in cellular release of virus | 
7 | Cc1ccc2c(nc(C)n2CCCCC2(C(=O)NCC(F)(F)F)c3ccccc3-c3ccccc32)c1NC(=O)c1ccccc1-c1ccc(C(F)(F)F)cc1 [BMS-212122] | decreases in cellular release of virus | 
8 | CCOC(=O)C(COC(=O)Cc1ccc(NC(=O)c2ccccc2-c2ccc(C(F)(F)F)cc2)c(C(=O)N(C)C)c1)(C(=O)OCC)c1ccccc1 [JTT-130] | decreases in cellular release of virus | 
